What all share (experiment): DTP human tumour cell line panel, 48 h
In test [1] the test system is M14.
Test [2] deals with HOP-62.
Test [3] has as its system MOLT-4.
Test [4] has as its system OVCAR-3.
Test [5] deals with SK-MEL-28.
Test [6] relates to SK-MEL-2.
Test [7] has as its system OVCAR-8.
In test [8] the test system is K562.
Test [9] concerns SF-539.
Test [10] concerns RXF 393.
The subject of test [11] is NCI-H460.
For test [12], the system named is SN12C.
Test [13] deals with RPMI-8226.
For test [14], the system named is SF-295.
The test system of test [15] is HCT-15.
Test [16] has as its system ACHN.
The test system of test [17] is SNB-19.
Test [18] deals with OVCAR-4.
In test [19] the test system is HCT-116.

Here are results for eleven molecules from ChEMBL document CHEMBL1201862, “PubChem BioAssay data set” (2004).

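These data come from cells grown in 96-well plates and exposed to compound for 48 hours at five concentrations. GI50 = concentration required for 50% inhibition of growth.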 Active and inactive are the calls of the source. Cut-off read from the data, not from the text of the source: active = GI50 up to about 1.1 µM and inactive = higher.

As to `COc1ccc(C2ON(c3ccccn3)CC=C2C)cc1` (stereo not drawn), the GI50 in test [1] is > 100 µM (inactive); in test [2], > 100 µM (inactive); in test [3], 96.4 µM (inactive); in test [4], > 100 µM (inactive); in test [5], > 100 µM (inactive); in test [6] it was > 100 µM (inactive). Besides, the GI50 in [7], in test [8], in test [9], in [10], in [11] and in test [12] was > 100 µM (inactive) in each case. The GI50 in test [13] was 60.1 µM (inactive); in test [14] it was > 100 µM (inactive); in test [15] it was more than 100 µM; in test [16], > 100 µM (inactive); in test [17], > 100 µM (inactive); in test [18], > 100 µM (inactive).

Consider `CS(=O)(=O)C1(Br)S(=O)(=O)OCCOS1(=O)=O`, for which the GI50 in test [1], in test [2], in test [3], in test [4], in [5] and in test [19] was > 100 µM (inactive) in each case. The GI50 in test [6], in test [7], in [8], in test [9], in test [10] and in test [11] was > 100 µM (inactive) each time. For the same molecule, the GI50 in [12] is > 100 µM (inactive); in test [13], > 100 µM (inactive); in test [14], > 100 µM (inactive); in test [15] it was more than 100 µM; in test [16], > 100 µM (inactive); in test [17], > 100 µM (inactive). Besides, in [18], the GI50 was > 100 µM (inactive).

As for `OCCNCO`, the GI50 in test [1], in test [2], in test [3], in test [4], in test [5] and in test [19] was > 100 µM (inactive) in each case. The GI50 in [6], in test [7], in [8], in test [9], in [10] and in test [11] was > 100 µM (inactive) each time. For the same molecule, the GI50 is > 100 µM (inactive) in test [12]; > 100 µM (inactive) in test [13]; > 100 µM (inactive) in test [14]; more than 100 µM in test [15]; > 100 µM (inactive) in test [16]; > 100 µM (inactive) in [17]. Also, the GI50 in [18] is > 100 µM (inactive).

Regarding `CCCCc1c2c(nc3c1CCC/C3=C\c1ccccc1)C(=O)CCC2`, the GI50 is 21.1 µM (inactive) in test [1]; 20.9 µM (inactive) in test [2]; 13.8 µM (inactive) in test [3]; 15.1 µM (inactive) in test [4]; 19.8 µM (inactive) in test [5]; 20 µM (inactive) in test [19]. The GI50 is 17.1 µM (inactive) in test [6]; 24.5 µM (inactive) in [7]; 18.2 µM (inactive) in [8]; 18.4 µM (inactive) in [9]; 17 µM (inactive) in test [10]; 34.2 µM (inactive) in test [11]. For the same molecule, the GI50 is 19.6 µM (inactive) in test [12]; 13.7 µM (inactive) in test [13]; 21.2 µM (inactive) in test [14]; 21.8 µM in [15]; 25.7 µM (inactive) in test [16]; 20.1 µM (inactive) in test [17]. The GI50 in [18] is 28.4 µM (inactive).

On to `C1=CC(=P(c2ccccc2)(c2ccccc2)c2ccccc2)C=C1`, for which the GI50 in [1] was 8.22 µM (inactive); in test [2], 18.4 µM (inactive); in test [3], 5.4 µM (inactive); in [4] it was 10.7 µM (inactive); in [5] it was 4.45 µM (inactive); in test [6], 13.3 µM (inactive). Besides, the GI50 in test [7] is 4.95 µM (inactive); in test [8], 3.45 µM (inactive); in test [9], 14.8 µM (inactive); in test [10], 13.7 µM (inactive); in [11], 7.83 µM (inactive); in [12], 10.3 µM (inactive). The GI50 was 3.18 µM (inactive) in [13]; 15.1 µM (inactive) in [14]; 29.7 µM in test [15]; 14.2 µM (inactive) in test [16]; 4.67 µM (inactive) in test [17]; 13.9 µM (inactive) in test [18].

Regarding `CCOP(=O)(OCC)C1CCCOC1=O` (stereo not drawn), the GI50 in [1], in test [2], in test [3], in test [4], in [5] and in test [19] was > 100 µM (inactive) throughout. Moreover, the GI50 in test [6], in test [7], in test [8], in test [9], in [10] and in [11] was > 100 µM (inactive) each time. Besides, the GI50 in [12] is > 100 µM (inactive); in test [13], > 100 µM (inactive); in test [14] it was > 100 µM (inactive); in [15], more than 100 µM; in test [16] it was > 100 µM (inactive); in test [17], > 100 µM (inactive). Further, the GI50 in [18] is > 100 µM (inactive).

Take `COc1cc(-c2nn3c(=O)n(-c4ccc(Cl)cc4)c(=O)nc3s2)cc(OC)c1OC`: the GI50 in test [1] was 39.2 µM (inactive); in test [2] it was 18.4 µM (inactive); in test [3], 98.2 µM (inactive); in [4], 54.5 µM (inactive); in [5] it was > 93.1 µM (inactive); in test [19] it was 33.7 µM (inactive). Further, the GI50 in [6] was 24.9 µM (inactive); in test [7] it was > 49.5 µM (inactive); in test [8] it was > 31.6 µM (inactive); in test [9], 17 µM (inactive); in [10], 8.87 µM (inactive); in test [11], > 100 µM (inactive). Further, the GI50 in [12] is > 96.2 µM (inactive); in [13] it was > 50 µM (inactive); in [14], > 50 µM (inactive); in [15], more than 88.3 µM; in test [16], 16.3 µM (inactive); in test [17], 19.1 µM (inactive). Besides, in test [18], the GI50 was 41.9 µM (inactive).

Take `CCC(=O)C(C(=O)CC)c1c(OC(=O)c2ccccc2)ccc(O)c1C(=O)OC`: the GI50 was > 100 µM (inactive) in test [1]; > 100 µM (inactive) in [2]; 72.3 µM (inactive) in test [3]; > 100 µM (inactive) in [4]; > 100 µM (inactive) in test [5]; > 100 µM (inactive) in test [19]. For the same molecule, the GI50 in test [6], in test [7], in [8], in test [9], in test [10] and in test [11] was > 100 µM (inactive) in each case. The GI50 in test [12] was > 100 µM (inactive); in test [13], > 100 µM (inactive); in test [14], > 100 µM (inactive); in test [15], more than 100 µM; in test [16], > 100 µM (inactive); in [17], > 100 µM (inactive). Besides, in test [18], the GI50 is > 100 µM (inactive).

With `Cc1cc(Br)ccc1/N=N/C1C(=O)ON=C1c1ccccc1` (stereo not drawn), the GI50 in test [1] is > 100 µM (inactive); in test [2], > 100 µM (inactive); in test [3] it was 31.3 µM (inactive); in test [4], > 100 µM (inactive); in test [5], > 100 µM (inactive); in test [19] it was 46.5 µM (inactive). Further, the GI50 in test [6] was > 100 µM (inactive); in test [7], > 100 µM (inactive); in test [8], 45 µM (inactive); in [9], > 100 µM (inactive); in test [10] it was 52.4 µM (inactive); in test [11] it was 55 µM (inactive). Also, the GI50 in test [12] was > 100 µM (inactive); in test [13], 28.4 µM (inactive); in test [14] it was > 100 µM (inactive); in test [16], 63.4 µM (inactive); in [17] it was > 100 µM (inactive); in test [18], > 100 µM (inactive).

Consider `CCc1ccccc1NC(=O)C1=C(C)NC(C)=C(C(=O)Nc2ccccc2CC)C1c1cccc([N+](=O)[O-])c1`, for which the GI50 is 29 µM (inactive) in [1]; 38.3 µM (inactive) in test [2]; 7.45 µM (inactive) in test [3]; 52 µM (inactive) in [4]; 40.9 µM (inactive) in test [5]; 19.5 µM (inactive) in test [6]. The GI50 in [7] was 44.7 µM (inactive); in test [8] it was 29.4 µM (inactive); in test [9], 43.9 µM (inactive); in test [10], 10.5 µM (inactive); in test [11], 27.7 µM (inactive); in [12] it was 70.6 µM (inactive). For the same molecule, the GI50 in [13] is 11.7 µM (inactive); in [14], 47.4 µM (inactive); in [16] it was 29.5 µM (inactive); in test [17] it was 59.4 µM (inactive); in [18] it was 7.85 µM (inactive).

For `COc1ccc(-c2cc(=O)c3c(O)cccc3o2)c(OC)c1OC`, the GI50 is > 100 µM (inactive) in test [1]; 10.3 µM (inactive) in test [2]; 12.9 µM (inactive) in test [3]; > 100 µM (inactive) in [4]; > 100 µM (inactive) in test [5]; 38.7 µM (inactive) in [19]. The GI50 was 20.2 µM (inactive) in [6]; > 100 µM (inactive) in test [7]; 6.59 µM (inactive) in [8]; 20.6 µM (inactive) in [9]; 20.2 µM (inactive) in test [10]; 80 µM (inactive) in test [11]. Also, the GI50 in [12] was 76.9 µM (inactive); in test [13], > 100 µM (inactive); in test [14], 43.2 µM (inactive); in test [15], 10.1 µM; in [16], 61 µM (inactive); in test [18] it was 74.5 µM (inactive).

Usually GI50 stands for the concentration that inhibits growth by half.
